Experimental findings from ChEMBL document CHEMBL1201862, “PubChem BioAssay data set” (2004) are described below.

Holding throughout (assay): NCI anticancer screen, dose series, 48 h
In experiment [1] the test system is EKVX.
Experiment [2] deals with DU-145.
Experiment [3] relates to MOLT-4.
Experiment [4] has as its system COLO 205.
Experiment [5] has as its system SN12C.
Experiment [6] deals with IGROV-1.
The subject of experiment [7] is PC-3.
Experiment [8] relates to CCRF-CEM.
For experiment [9], the system named is CAKI-1.
Experiment [10] concerns NCI-H522.
Experiment [11] relates to T47D.
The test system of experiment [12] is MCF7.
The test system of experiment [13] is HT-29.
Experiment [14] relates to HCT-116.
In experiment [15] the test system is Malme-3M.
Experiment [16] has as its system OVCAR-3.
Experiment [17] has as its system M14.
Experiment [18] concerns NCI/ADR-RES.
Experiment [19] concerns HCT-15.
In experiment [20] the test system is NCI-H23.

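In this assay, cells in 96-well plates receive the compound at five concentrations for 48 hours. Endpoints are linearly interpolated between the surrounding concentrations. GI50 = concentration required for 50% inhibition of growth.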 The source made the active and inactive calls. No stated cut-off is given here; in the data, active = GI50 up to about 1.1 µM and inactive = higher.

For `COc1ccc(C[N+]23C(CC[C@H]2c2ccccc2)CC[C@H]3c2ccccc2)cc1` (stereo partly drawn), the GI50 in experiment [1] was 15.4 µM (inactive); in [2], 23.8 µM (inactive); in experiment [3] it was 21.6 µM (inactive); in experiment [4] it was 5.26 µM (inactive); in [5] it was 36.9 µM (inactive); in experiment [6], 10.9 µM (inactive). For the same compound, the GI50 in experiment [7] is 20 µM (inactive); in experiment [8], 27.5 µM (inactive); in experiment [9], 75.5 µM (inactive); in experiment [10], 8.73 µM (inactive); in [11], 4.56 µM (inactive); in [12] it was 14.7 µM (inactive). In addition, the GI50 in experiment [13] is 12.2 µM (inactive); in experiment [14], 24.5 µM (inactive); in experiment [15], 11.4 µM (inactive); in experiment [16], 6.04 µM (inactive); in experiment [17], 12.9 µM (inactive).
On to `CC(=O)Nc1ccc(C(=O)N[C@@H]2C(=O)N3[C@@H]2SC(C)(C)[C@@H]3C(=O)O)cn1`, for which the GI50 in experiment [1], in [18], in [2], in [3], in [4] and in experiment [5] was > 100 µM (inactive) in each case. In addition, the GI50 in [6] was > 100 µM (inactive); in experiment [7], > 100 µM (inactive); in experiment [8] it was > 100 µM (inactive); in experiment [19], over 100 µM; in [9], > 100 µM (inactive); in [11] it was > 100 µM (inactive). Besides, the GI50 in [12], in experiment [13], in [20], in [14], in experiment [15] and in experiment [16] was > 100 µM (inactive) throughout. In addition, the GI50 in experiment [17] was > 100 µM (inactive).
Turning to `Cn1cnc([N+](=O)[O-])c1Sc1nncc2[nH]cnc12`, the GI50 in [1], in [18], in [3], in experiment [4], in [5] and in experiment [6] was > 100 µM (inactive) throughout. The GI50 in [7] is > 100 µM (inactive); in [8] it was > 100 µM (inactive); in experiment [19], over 100 µM; in [9], > 100 µM (inactive); in experiment [10], > 100 µM (inactive); in experiment [11], > 100 µM (inactive). In addition, the GI50 in [12] was > 100 µM (inactive); in experiment [13], > 100 µM (inactive); in [20], > 100 µM (inactive); in experiment [14] it was > 100 µM (inactive); in experiment [15], 28.8 µM (inactive); in experiment [16], > 100 µM (inactive). Moreover, the GI50 in experiment [17] was > 100 µM (inactive).
As to `CC(C)CCC[C@@H](C)[C@H]1CC[C@H]2[C@@H]3CC=C4C[C@@H](OC(=O)c5cccc6c(=O)c7ccccc7[nH]c56)CC[C@]4(C)[C@H]3CC[C@]12C`, the GI50 in experiment [1] was > 75 µM (inactive); in [18], > 75 µM (inactive); in experiment [3] it was > 75 µM (inactive); in experiment [4], > 75 µM (inactive); in experiment [5], 1.92 µM (inactive); in experiment [6] it was > 75 µM (inactive). The GI50 was > 75 µM (inactive) in experiment [7]; over 75 µM in [19]; > 75 µM (inactive) in [10]; > 75 µM (inactive) in experiment [11]; > 75 µM (inactive) in experiment [12]; > 75 µM (inactive) in experiment [13]. The GI50 in experiment [20], in [15], in experiment [16] and in [17] was > 75 µM (inactive) throughout.
Take `COC(=O)CC[N+]1([O-])CC1`: the GI50 in experiment [1], in [18], in [2], in [3], in [4] and in experiment [5] was > 100 µM (inactive) in each case. The GI50 in [6] is > 100 µM (inactive); in experiment [8], > 100 µM (inactive); in experiment [19] it was over 100 µM; in [11] it was > 100 µM (inactive); in experiment [12] it was > 100 µM (inactive); in experiment [13], > 100 µM (inactive). In addition, the GI50 in experiment [20], in [14], in experiment [15] and in experiment [17] was > 100 µM (inactive) throughout.
On to `CC(=O)/C=C/CCC(=O)/C=C/C(=O)OC(CCC(=O)/C=C/C(=O)O)CC(C)=O` (stereo not drawn), for which the GI50 in [1], in experiment [18], in experiment [2], in experiment [3], in experiment [4] and in experiment [5] was > 100 µM (inactive) each time. The GI50 in experiment [6] is > 100 µM (inactive); in experiment [7], > 100 µM (inactive); in experiment [8], 43.8 µM (inactive); in experiment [19], 92.5 µM; in [10] it was 96.4 µM (inactive); in experiment [11], > 100 µM (inactive). Besides, the GI50 in experiment [12] is 93.1 µM (inactive); in [13], > 100 µM (inactive); in experiment [20] it was > 100 µM (inactive); in [14], > 100 µM (inactive); in [15], > 100 µM (inactive); in experiment [16] it was > 100 µM (inactive). Moreover, the GI50 in experiment [17] is > 100 µM (inactive).
Regarding `N#C[C@](CO)(NC(=O)OCc1ccccc1)C(F)F`, the GI50 in [1], in experiment [18], in experiment [2], in experiment [3], in experiment [4] and in [6] was > 100 µM (inactive) throughout. The GI50 in experiment [7] was > 100 µM (inactive); in [8] it was > 100 µM (inactive); in [19] it was over 100 µM; in experiment [9], > 100 µM (inactive); in experiment [10] it was > 100 µM (inactive); in experiment [11] it was > 100 µM (inactive). Besides, the GI50 in experiment [13], in [20], in [14], in experiment [15], in experiment [16] and in [17] was > 100 µM (inactive) in each case.
Take `O=S(=O)(Cc1ccccc1)c1nnc(S(=O)(=O)c2ccc(Cl)cc2)s1`: the GI50 in experiment [1] was 25.6 µM (inactive); in experiment [18], 25 µM (inactive); in experiment [2], 17 µM (inactive); in experiment [3], 3.39 µM (inactive); in experiment [4], 16 µM (inactive); in [5], 20.2 µM (inactive). For the same compound, the GI50 in [7] was 21.8 µM (inactive); in [19] it was 20.9 µM; in [9] it was 24.3 µM (inactive); in experiment [10], 14 µM (inactive); in [11], 31.6 µM (inactive); in [12], 48 µM (inactive). Besides, the GI50 in experiment [13] is 22.5 µM (inactive); in experiment [20], 23.3 µM (inactive); in [14], 19.5 µM (inactive); in experiment [16], 20.5 µM (inactive); in experiment [17] it was 17.7 µM (inactive).
For `Cc1cccc(Cl)c1NCC(O)CN1CCN(C)CC1` (stereo not drawn), the GI50 in experiment [1], in [18], in experiment [2], in experiment [3], in experiment [5] and in experiment [6] was > 100 µM (inactive) throughout. Besides, the GI50 is > 100 µM (inactive) in [7]; > 100 µM (inactive) in experiment [8]; over 100 µM in [19]; > 100 µM (inactive) in experiment [9]; > 100 µM (inactive) in experiment [10]; > 100 µM (inactive) in [11]. Moreover, the GI50 in experiment [13], in [20], in [14], in experiment [15], in experiment [16] and in [17] was > 100 µM (inactive) each time.
For the compound `Cn1cc(NC(=O)Nc2cc(C(=O)Nc3cc(C(=O)Nc4cc(S(=O)(=O)O)c5cc(S(=O)(=O)O)cc(S(=O)(=O)O)c5c4)n(C)c3)n(C)c2)cc1C(=O)Nc1cc(C(=O)Nc2cc(S(=O)(=O)O)c3cc(S(=O)(=O)O)cc(S(=O)(=O)O)c3c2)n(C)c1`, the GI50 in [1] is 31.9 µM (inactive); in [18], > 100 µM (inactive); in experiment [2], > 100 µM (inactive); in [3] it was > 100 µM (inactive); in experiment [4], > 100 µM (inactive); in experiment [5], > 100 µM (inactive). For the same compound, the GI50 is 5.64 µM (inactive) in experiment [6]; > 100 µM (inactive) in [7]; > 100 µM (inactive) in [8]; over 100 µM in [19]; > 100 µM (inactive) in experiment [10]; > 100 µM (inactive) in experiment [11]. The GI50 in experiment [12], in experiment [13], in experiment [20], in [14], in experiment [15] and in experiment [16] was > 100 µM (inactive) each time. For the same compound, the GI50 in experiment [17] was > 100 µM (inactive).
With `COc1cccc2c1[C@H](OC)[C@]13O[C@@]1(C2=O)[C@H](O)[C@H](C)[C@@](O)(C(=O)[C@@H]1O[C@H]1C)[C@@H]3O`, the GI50 is 0.187 µM (active) in [1]; 0.337 µM (active) in [18]; 0.282 µM (active) in experiment [2]; 0.299 µM (active) in [3]; 0.165 µM (active) in experiment [4]; 0.229 µM (active) in [6]. Further, the GI50 is 0.266 µM (active) in experiment [7]; 0.155 µM (active) in experiment [8]; 0.255 µM in [19]; 0.185 µM (active) in experiment [10]; 0.313 µM (active) in [11]; 0.294 µM (active) in experiment [12]. For the same compound, the GI50 in experiment [20] is 0.196 µM (active); in experiment [15] it was 0.169 µM (active); in experiment [16], 0.276 µM (active).
